Values of other authors, collected in patent publication US10273202B2, “Nitroxyl progenitor compounds and methods of use” (The Johns Hopkins University, priority 2004, dated 2019).
Like-named read-outs stand apart in the source and are kept apart here.

Test system: dog with congestive heart failure
Conditions: CHF dogs
[1] = 5-10 μg/kg/min for 15 min i.v., n=8

[Na+].[Na+].[O-][N+]([O-])=NO [AS, Angeli's salt]
Ees, % from baseline [1]: +46 ± 8% | LVEDD, % from baseline [1]: −3.8 ± 1% | LVEDP, % from baseline [1]: −50 ± 12% | LVESD, % from baseline [1]: −3.9 ± 1% | LVESP, % from baseline [1]: −13 ± 2% | RT, % from baseline [1]: −12 ± 5% | Tau, % from baseline [1]: −18 ± 2% | Ees, % from baseline (5-10 μg/kg/min, + volume): +37 ± 5% | LVEDD, % from baseline (5-10 μg/kg/min, + volume): −1.7 ± 1% | LVEDP, % from baseline (5-10 μg/kg/min, + volume): −34 ± 19% | LVESD, % from baseline (5-10 μg/kg/min, + volume): −3.0 ± 0.5% | LVESP, % from baseline (5-10 μg/kg/min, + volume): −9.9 ± 2% | RT, % from baseline (5-10 μg/kg/min, + volume): −14 ± 4% | Tau, % from baseline (5-10 μg/kg/min, + volume): −15 ± 3%
